Source: the NIST ThermoML archive (doi:10.1021/acs.jced.6b00542)

Experiment: xn = mol fraction of the nth substance listed
Conditions: for speed of sound: 100 kPa, Frequency=3 MHz, Sing-around technique in a fixed-path interferometer; for speed of sound / viscosity / mass density: Liquid; for viscosity / mass density: 102 kPa; for viscosity: Concentric cylinders viscometry; for mass density: Vibrating tube method; for surface tension liquid-gas: 294.5 K, Pendant drop shape

CCCCc1ccccc1 [butylbenzene] + CCCCCCCCCCCCCC
Conditions	mass density [kg/m3]	speed of sound [m/s]	viscosity [mPa·s]
293.15 K, x1 = 0.1414	770.92	1330.1	2.06
293.15 K, x1 = 0.2704	779.61	1329.5	1.86
293.15 K, x1 = 0.3915	788.74	1329.7	1.69
293.15 K, x1 = 0.4988	797.91	1330.9	1.55
293.15 K, x1 = 0.5961	807.14	1332.5	1.44
293.15 K, x1 = 0.6892	817.1	1334.9	1.34
293.15 K, x1 = 0.7751	827.32	1338.1	1.25
293.15 K, x1 = 0.8553	837.74	1342.1	1.18
293.15 K, x1 = 0.9299	849.02	1347.7	1.12
293.15 K, x1 = 1	860.51	1353.7	1.05
303.15 K, x1 = 0.1414	763.79	1292.6	1.7
303.15 K, x1 = 0.2704	772.41	1292.1	1.54
303.15 K, x1 = 0.3915	781.46	1292.3	1.42
303.15 K, x1 = 0.4988	790.54	1293.4	1.31
303.15 K, x1 = 0.5961	799.68	1294.9	1.22
303.15 K, x1 = 0.6892	809.54	1297.2	1.14
303.15 K, x1 = 0.7751	819.66	1300.2	1.07
303.15 K, x1 = 0.8553	829.96	1303.8	1.02
303.15 K, x1 = 0.9299	841.12	1309.2	0.965
303.15 K, x1 = 1	852.49	1314.9	0.91
313.15 K, x1 = 0.1414	756.65	1255.6	1.42
313.15 K, x1 = 0.2704	765.18	1255.1	1.31
313.15 K, x1 = 0.3915	774.14	1255.3	1.21
313.15 K, x1 = 0.4988	783.14	1256.3	1.12
313.15 K, x1 = 0.5961	792.18	1257.6	1.05
313.15 K, x1 = 0.6892	801.94	1259.8	0.987
313.15 K, x1 = 0.7751	811.95	1262.7	0.932
313.15 K, x1 = 0.8553	822.15	1266.1	0.886
313.15 K, x1 = 0.9299	833.19	1271.2	0.843
313.15 K, x1 = 1	844.43	1276.6	0.801
323.15 K, x1 = 0.1414	749.49	1219.1	1.21
323.15 K, x1 = 0.2704	757.94	1218.6	1.12
323.15 K, x1 = 0.3915	766.81	1218.7	1.04
323.15 K, x1 = 0.4988	775.71	1219.6	0.973
323.15 K, x1 = 0.5961	784.66	1220.9	0.915
323.15 K, x1 = 0.6892	794.32	1223	0.863
323.15 K, x1 = 0.7751	804.22	1225.6	0.818
323.15 K, x1 = 0.8553	814.31	1228.9	0.78
323.15 K, x1 = 0.9299	825.22	1233.7	0.744
323.15 K, x1 = 1	836.34	1238.7	0.713
333.15 K, x1 = 0.1414	742.31	1183.2	1.05
333.15 K, x1 = 0.2704	750.67	1182.7	0.973
333.15 K, x1 = 0.3915	759.45	1182.7	0.908
333.15 K, x1 = 0.4988	768.25	1183.5	0.853
333.15 K, x1 = 0.5961	777.11	1184.7	0.806
333.15 K, x1 = 0.6892	786.65	1186.6	0.762
333.15 K, x1 = 0.7751	796.45	1189.1	0.725
333.15 K, x1 = 0.8553	806.42	1192.1	0.691
333.15 K, x1 = 0.9299	817.22	1196.7	0.662
333.15 K, x1 = 1	828.21	1201.4	0.636
343.15 K, x1 = 0.1414	735.2	–	0.912
343.15 K, x1 = 0.2704	743.4	–	0.852
343.15 K, x1 = 0.3915	752	–	0.8
343.15 K, x1 = 0.4988	760.8	–	0.753
343.15 K, x1 = 0.5961	769.6	–	0.716
343.15 K, x1 = 0.6892	779	–	0.678
343.15 K, x1 = 0.7751	788.7	–	0.647
343.15 K, x1 = 0.8553	798.5	–	0.619
343.15 K, x1 = 0.9299	809.2	–	0.592
343.15 K, x1 = 1	819.9	–	0.571
353.15 K, x1 = 0.1414	728	–	0.804
353.15 K, x1 = 0.2704	736.1	–	0.754
353.15 K, x1 = 0.3915	744.6	–	0.711
353.15 K, x1 = 0.4988	753.3	–	0.671
353.15 K, x1 = 0.5961	762	–	0.639
353.15 K, x1 = 0.6892	771.3	–	0.608
353.15 K, x1 = 0.7751	780.9	–	0.581
353.15 K, x1 = 0.8553	790.6	–	0.557
353.15 K, x1 = 0.9299	801.1	–	0.534
353.15 K, x1 = 1	811.7	–	0.516
363.15 K, x1 = 0.1414	720.7	–	0.715
363.15 K, x1 = 0.2704	728.7	–	0.674
363.15 K, x1 = 0.3915	737.1	–	0.637
363.15 K, x1 = 0.4988	745.7	–	0.604
363.15 K, x1 = 0.5961	754.3	–	0.576
363.15 K, x1 = 0.6892	763.5	–	0.55
363.15 K, x1 = 0.7751	773	–	0.526
363.15 K, x1 = 0.8553	782.5	–	0.505
363.15 K, x1 = 0.9299	793	–	0.486
363.15 K, x1 = 1	803.4	–	0.469
373.15 K, x1 = 0.1414	713.3	–	0.641
373.15 K, x1 = 0.2704	721.2	–	0.606
373.15 K, x1 = 0.3915	729.5	–	0.575
373.15 K, x1 = 0.4988	738	–	0.547
373.15 K, x1 = 0.5961	746.5	–	0.523
373.15 K, x1 = 0.6892	755.6	–	0.5
373.15 K, x1 = 0.7751	764.9	–	0.48
373.15 K, x1 = 0.8553	774.3	–	0.461
373.15 K, x1 = 0.9299	784.7	–	0.444
373.15 K, x1 = 1	795	–	0.43

Conditions	surface tension liquid-gas [mN/m]
x1 = 0.1414	26.5
x1 = 0.2704	26.7
x1 = 0.3915	27
x1 = 0.4988	27
x1 = 0.5961	27.3
x1 = 0.6892	27.3
x1 = 0.7751	27.8
x1 = 0.8553	28
x1 = 0.9299	28.3
